Data: patent publication US4051237A, “Glycopeptide antibiotics Bu-2231 A and B and process for producing same” (priority 1975, dated 1977)
Converted amounts (≈) assume the structure as drawn.

Legend:
[1] = tested on: Mycobacterium 607, D46; assay: MIC by two-fold agar dilution; assay type: cell-based; details: Medium #1001, unit assumed
[2] = tested on: C. albicans #520 Yale A9540; assay: MIC by two-fold agar dilution; assay type: cell-based; details: Ca-4 C. albicans #520 Yale A9540; sabouraud agar; unit assumed
[3] = tested on: C. krusei #96 A15052; assay: MIC by two-fold agar dilution; assay type: cell-based; details: Ck-2 C. krusei #96 A15052; sabouraud agar; unit assumed
[4] = tested on: K. pneumoniae A20328; assay: MIC by two-fold agar dilution; assay type: cell-based; details: Mueller-Hinton agar, unit assumed
[5] = tested on: Mucor sp.; assay: MIC by two-fold agar dilution; assay type: cell-based; details: My-1 Mucor sp.; sabouraud agar; unit assumed
[6] = tested on: K. pneumoniae A9678; assay: MIC by two-fold agar dilution; assay type: cell-based; details: Mueller-Hinton agar, unit assumed
[7] = tested on: P. stuartii A20894; assay: MIC by two-fold agar dilution; assay type: cell-based; details: Mueller-Hinton agar, unit assumed
[8] = tested on: P. stuartii A20734; assay: MIC by two-fold agar dilution; assay type: cell-based; details: Mueller-Hinton agar, unit assumed
[9] = tested on: E. coli K-12 A9632; assay: MIC by two-fold agar dilution; assay type: cell-based; details: Mueller-Hinton agar, unit assumed
[10] = tested on: S. cerevisiae ATCC 9763; assay: MIC by two-fold agar dilution; assay type: cell-based; details: Sc-1 S. cerevisiae ATCC 9763; sabouraud agar; unit assumed
[11] = tested on: E. coli A20665; assay: MIC by two-fold agar dilution; assay type: cell-based; details: Mueller-Hinton agar, unit assumed
[12] = tested on: T. asteroides; assay: MIC by two-fold agar dilution; assay type: cell-based; details: Ta-1 T. asteroides; sabouraud agar; unit assumed
[13] = tested on: C. neoformans (Cn-1); assay: MIC by two-fold agar dilution; assay type: cell-based; details: Cn-1 C. neoformans; sabouraud agar; unit assumed
[14] = tested on: M. flavus D12; assay: MIC by two-fold agar dilution; assay type: cell-based; details: Mueller-Hinton agar, unit assumed
[15] = tested on: P. mirabilis A9554; assay: MIC by two-fold agar dilution; assay type: cell-based; details: Mueller-Hinton agar, unit assumed
[16] = tested on: K. pneumoniae A20680; assay: MIC by two-fold agar dilution; assay type: cell-based; details: Mueller-Hinton agar, unit assumed
[17] = tested on: Hormodendrum sp.; assay: MIC by two-fold agar dilution; assay type: cell-based; details: Hy-1 Hormodendrum sp.; sabouraud agar; unit assumed
[18] = tested on: C. neoformans IAM 4514; assay: MIC by two-fold agar dilution; assay type: cell-based; details: Cn-2 C. neoformans IAM 4514; sabouraud agar; unit assumed
[19] = tested on: E. coli NIHJ; assay: MIC by two-fold agar dilution; assay type: cell-based; details: Mueller-Hinton agar, unit assumed
[20] = tested on: C. tropicalis #125 A15051; assay: MIC by two-fold agar dilution; assay type: cell-based; details: Ct-4 C. tropicalis #125 A15051; sabouraud agar; unit assumed
[21] = tested on: K. pneumoniae D11; assay: MIC by two-fold agar dilution; assay type: cell-based; details: Mueller-Hinton agar, unit assumed
[22] = tested on: Mycobacterium 607, D87; assay: MIC by two-fold agar dilution; assay type: cell-based; details: Medium #1001, unit assumed
[23] = tested on: C. krusei IAM 4489; assay: MIC by two-fold agar dilution; assay type: cell-based; details: Ck-1 C. krusei IAM 4489; sabouraud agar; unit assumed
[24] = tested on: B. subtilis PCI-219; assay: MIC by two-fold agar dilution; assay type: cell-based; details: Mueller-Hinton agar, unit assumed
[25] = tested on: B. mycoides "0"; assay type: cell-based; details: Mueller-Hinton agar, unit assumed
[26] = tested on: E. coli NIHJ; assay: In vivo activity in experimental mice infection; details: Table 12
Procedure: The in vivo activity of Bu-2231 complex was evaluated in experimental mice infections against S. aureus Smith and E. coli NIHJ. Bleomycin was tested comparatively as a reference antibiotic.
The in vivo activty of the individual components of Bu-2231 in each of the copper-free and copper complex forms was also determined in E. coli infection.

[27] = mice, single subcutaneous injection, 16 days
Procedure: The acute toxicity of copper-free Bu-2231 A and B was determined in mice by a single subcutaneous injection. Groups of 3 mice were used for each dose level and the body weight was recorded for 16 days.

## Phleomycin [reference compound]
[1]
  MIC: 0.2 µg/mL
[2]
  MIC: 6.3 µg/mL
[3]
  MIC: 0.8 µg/mL
[4]
  MIC: > 100 µg/mL
[5]
  MIC: 3.1 µg/mL
[6]
  MIC: 12.5 µg/mL
[7]
  MIC: 0.8 µg/mL
[8]
  MIC: 1.6 µg/mL
[9]
  MIC: 1.6 µg/mL
[10]
  MIC: 0.8 µg/mL
[11]
  MIC: 0.4 µg/mL
[12]
  MIC: 6.3 µg/mL
[13]
  MIC: 0.4 µg/mL
[14]
  MIC: 0.2 µg/mL
[15]
  MIC: 1.6 µg/mL
[16]
  MIC: > 100 µg/mL
[17]
  MIC: 0.8 µg/mL
[18]
  MIC: 0.4 µg/mL
[19]
  MIC: 0.8 µg/mL
[20]
  MIC: 6.3 µg/mL
[21]
  MIC: 0.4 µg/mL
[22]
  MIC: 0.4 µg/mL
[23]
  MIC: 0.8 µg/mL
[24]
  MIC: < 0.0063 µg/mL
[25]
  MIC: 0.2 µg/mL

## Cc1c(N)nc([C@H](CC(N)=O)NC[C@@H](N)C(N)=O)nc1C(=O)N[C@H](C(=O)N[C@H](C)[C@@H](O)CC(=O)N[C@@H](C(=O)NC(O[C@@H]1O[C@@H](C)[C@@H](N)[C@@H](O)[C@H]1O)C(O)c1nc(-c2nc(C(=O)NCCCNCCCCN)cs2)cs1)[C@@H](C)O)C(O[C@@H]1O[C@@H](CO)[C@H](O)[C@@H](O)[C@@H]1O[C@H]1O[C@H](CO)[C@@H](O)[C@@H](OC(N)=O)[C@@H]1O)c1cnc[nH]1 (stereo partly drawn) [Bu-2231 B Cu-free]
[1]
  MIC: 0.1 µg/mL (≈ 0.0624 µM)
[2]
  MIC: 1.6 µg/mL (≈ 0.998 µM)
[3]
  MIC: 0.4 µg/mL (≈ 0.249 µM)
[4]
  MIC: 1.6 µg/mL (≈ 0.998 µM)
[5]
  MIC: 3.1 µg/mL (≈ 1.93 µM)
[6]
  MIC: 0.4 µg/mL (≈ 0.249 µM)
[7]
  MIC: 0.4 µg/mL (≈ 0.249 µM)
[8]
  MIC: 0.8 µg/mL (≈ 0.499 µM)
[26]; E. coli NIHJ infection, mice, sc
  PD50: 0.065 mg/kg
[26]; dose (sc) 0.008
  In vivo activity vs. E. coli NIHJ infection (x/5 mice): 0/5
[26]; dose (sc) 0.03
  In vivo activity vs. E. coli NIHJ infection (x/5 mice): 1/5
[26]; dose (sc) 0.13
  In vivo activity vs. E. coli NIHJ infection (x/5 mice): 4/5
[26]; dose (sc) 0.5
  In vivo activity vs. E. coli NIHJ infection (x/5 mice): 5/5
[26]; dose (sc) 2
  In vivo activity vs. E. coli NIHJ infection (x/5 mice): 5/5
[9]
  MIC: 0.1 µg/mL (≈ 0.0624 µM)
[10]
  MIC: 0.2 µg/mL (≈ 0.125 µM)
[11]
  MIC: 0.05 µg/mL (≈ 0.0312 µM)
[12]
  MIC: 0.8 µg/mL (≈ 0.499 µM)
[13]
  MIC: 0.2 µg/mL (≈ 0.125 µM)
[14]
  MIC: 0.4 µg/mL (≈ 0.249 µM)
[15]
  MIC: 0.2 µg/mL (≈ 0.125 µM)
[16]
  MIC: 25 µg/mL (≈ 15.6 µM)
[17]
  MIC: 0.2 µg/mL (≈ 0.125 µM)
[18]
  MIC: 0.2 µg/mL (≈ 0.125 µM)
[19]
  MIC: 0.2 µg/mL (≈ 0.125 µM)
[20]
  MIC: 0.8 µg/mL (≈ 0.499 µM)
[21]
  MIC: 0.025 µg/mL (≈ 0.0156 µM)
[22]
  MIC: 0.1 µg/mL (≈ 0.0624 µM)
[23]
  MIC: 0.4 µg/mL (≈ 0.249 µM)
[24]
  MIC: < 0.0063 µg/mL
[27]
  LD50: > 50 mg/kg
[25]
  MIC: 0.2 µg/mL (≈ 0.125 µM)
